Reference: patent publication US20110275574A1, “METHOD OF INHIBITING PROLIFERATION OF HEPATIC STELLATE CELLS” (Agency for Science, Technology and Research, priority 2009, published 2011)
d = 2'-deoxy (DNA); r = 2'-OH (RNA)

What was measured:
Cx43 mRNA = Cx43 mRNA expression by quantitative real-time PCR in HSC-2 cells; type: cell-based, rat; settings: HSC-2, Cx43 siRNA 10 nM, 48 hours, relative to mock-transfected
Experimental: Cell culture conditions: Primary hepatic stellate cells were isolated from male Wistar rats according to a previously published procedure (Weiskirchen and Gressner, 2005). The protocol was approved by the Institutional Animal Care and Use Committee (IACUC) of the Biomedical Research Council of Singapore. The purity of primary HSCs was assessed by vitamin A autofluorescence one day after isolation. The cell line HSC-2 was described elsewhere (Maubach et al., 2008). All cells were cultivated in a humidified 37° C. incubator circulated with 5% CO2. High glucose Dulbecco's modified Eagle medium (D-MEM) containing 10% fetal bovine serum, 100 units/ml penicillin and 100 μg/ml streptomycin was used during cell culture. Trypsin-EDTA was purchased from Biochrome (Germany). All other cell culture reagents were from Invitrogen (CA, USA).
Hepatic stellate cells treatment with recombinant human TGF-β1: Twenty four hours prior to treatment, HSCs were seeded in 75 cm^2 tissue culture flasks. At 60-70% cell confluence, recombinant human TGF-β1 (hTGF-[3]) was added at a final concentration of 1 or 10 ng/ml and incubated for 2, 6, 10, 24 or 30 hours. For the control treatment, only phosphate-buffered saline (PBS) was given to the cells. In some experiments, HSC-2 cells were treated with bisindolylmaleimide I (BIM I) at a final concentration of 5 μM for 30 min before treatment with 10 ng/ml hTGF-β1.
Reverse transcription and quantitative PCR: Total RNA was isolated from cells according to the manufacturer's protocol (RNA II kit, Machery-Nagel, Germany). All reagents for reverse transcription and real-time PCR were from Applied Biosystems (CA, USA). One microgram of total RNA was reverse transcribed to cDNA in a total reaction volume of 50 μl at conditions described in the RT kit (N8080234). Real-time PCR reactions were performed using the Fast Real Time PCR System (Applied Biosystems). Three microlitres of cDNA were used in a PCR reaction volume of 10 μl. The Taqman probes for target genes Cx43 and Snai1, as well as for endogenous control β-actin were Rn01433957_m1, Rn00441533_g1 and 4352341E, respectively. The PCR conditions were 95° C. for 20 s and 40 cycles of amplification at 95° C. for 3 s and 60° C. for 30 s.
(§1) Snai1 and connexin 43 siRNAs transfection: Shortly before transfection, 1−2×10^6 HSC-2 cells were seeded in 100 mm cell culture dishes and incubated at 37° C. The siRNA was added at a final concentration of 10 nM to 1 ml of D-MEM without serum, followed by 120 μl of HiPerfect transfection reagent (Qiagen, Germany) and incubated for 10 min. The siRNA/transfection reagent solution was added drop-wise to the cells and incubated for 24 or 48 hours. As mock control, only HiPerfect reagent was added to the cells. The Snai1 siRNAs used were Rn_Snai1—1 and Rn_Snai1—3 and the Cx43 siRNAs used were Rn_Gja1—1 and Rn_Gja1—5 (Qiagen, Germany).

HSC-2 cells = assay: Cell counting (proliferation) of HSC-2 cells; type: cell-based, rat; settings: HSC-2, Cx43 siRNA 10 nM, 48 hours, versus mock-transfected
Experimental: as §1
Cell counting: After treatment, cells were washed once with PBS and detached using trypsin/EDTA. Following centrifugation at 800 rpm for 4 min, the cell pellet was resuspended in 1 ml D-MEM and the cells were counted using the forward scatter function of the GUAVA PCA-96 (Guava Technologies, CA, USA).

Row | Substance | down-regulation of Cx43 mRNA (Cx43 mRNA) | total number of cells (HSC-2 cells)
1 | Cx43 siRNA 5: Cx43 siRNA, sense strand r(GGU AAG CUU CCC UGG UCU A)dTdT [SEQ ID NO: 9], antisense SEQ ID NO: 10 (Qiagen) (sense GGUAAGCUUCCCUGGUCUATT; antisense UAGACCAGGGAAGCUUACCTT; sugars from the 5' end r19 d2, backbone not given here) | about 65% | significant decline
2 | Cx43 siRNA 1: Cx43 siRNA, sense strand r(CAG UGC ACA UGU AAC UAA U)dTdT [SEQ ID NO: 6], antisense SEQ ID NO: 7 (Qiagen) (sense CAGUGCACAUGUAACUAAUTT; antisense AUUAGUUACAUGUGCACUGTT; sugars from the 5' end r19 d2, backbone not given here) | about 65% | significant decline
